Assays:
Assay type in all cases: ADME, Microsome
[1] = Half life in CD-1 mouse liver microsomes in presence of NADPH by UPLC-MS analysis; conditions: for t1/2: mouse, microsomes
[2] = Drug metabolism in CD-1 mouse liver microsomes assessed as oxidation at N-2 isobutyl group
[3] = Drug metabolism in CD-1 mouse liver microsomes assessed as (3S,4S)-N-(3-chloro-4-hydroxyphenyl)-2-isobutyl-1-oxo-3-(thiophen-2-yl)-1,2,3,4-tetrahydroisoquinoline-4-carboxamide formation
[4] = Drug metabolism in CD-1 mouse liver microsomes assessed as ((3S,4S)-N-(3-hydroxyphenyl)-2-isobutyl-1-oxo-3-(thiophen-2-yl)-1,2,3,4-tetrahydroisoquinoline-4-carboxamide formation
[5] = Drug level in CD-1 mouse liver microsomes treated with (3S,4S)-N-(3-cyanophenyl)-2-isobutyl-1-oxo-3-(thiophen-2-yl)-1,2,3,4-tetrahydroisoquinoline-4-carboxamide
[6] = Drug level in CD-1 mouse liver microsomes treated with (3S,4S)-N-(3-chloro-4-methoxyphenyl)-2-isobutyl-1-oxo-3-(thiophen-2-yl)-1,2,3,4-tetrahydroisoquinoline-4-carboxamide

SMILES: CC(C)CN1C(=O)c2ccccc2[C@H](C(=O)Nc2ccc(F)c(C#N)c2)[C@H]1c1cn[nH]c1 (racemic)
- t1/2 [1]: 19.8 min

SMILES: N#Cc1cc(NC(=O)[C@H]2c3ccccc3C(=O)N(CC(F)(F)F)[C@@H]2c2cn[nH]c2)ccc1F (relative stereo)
- t1/2 [1]: > 240 min

SMILES: COc1ccc(NC(=O)[C@H]2c3ccccc3C(=O)N(CC(C)C)[C@@H]2c2cccs2)cc1Cl (racemic)
- Drug metabolism [2]: Metabolite_Detected
- half-life ([1]; CD-1, mouse, liver microsomes): < 30 min
- Drug metabolism [3]: Metabolite_Detected

SMILES: CC(C)CN1C(=O)c2ccccc2[C@H](C(=O)Nc2cccc(C#N)c2)[C@H]1c1cccs1 (racemic)
- Drug metabolism [4]: Metabolite_Detected
- Drug metabolism [2]: Metabolite_Detected
- t1/2 [1]: 16.8 min

SMILES: CC(C)CN1C(=O)c2ccccc2[C@H](C(=O)Nc2cccc(O)c2)[C@H]1c1cccs1 (relative stereo)
- Drug metabolism [5]: Metabolite_Detected

SMILES: CC(C)CN1C(=O)c2ccccc2[C@H](C(=O)Nc2ccc(O)c(Cl)c2)[C@H]1c1cccs1 (relative stereo)
- Drug metabolism [6]: Metabolite_Detected

SMILES: CC(C)CN1C(=O)c2ccccc2[C@H](C(=O)Nc2ccc(F)c(C#N)c2)[C@H]1c1ccc(C#N)s1 (racemic)
- t1/2 [1]: 72.6 min

SMILES: N#Cc1cc(NC(=O)[C@H]2c3ccccc3C(=O)N(CC(F)(F)F)[C@@H]2c2cccnc2)ccc1F (relative stereo) [SJ-733]
- t1/2 [1]: 97.8 min

Source: ChEMBL document CHEMBL4428058, “Hit-to-Lead Studies for the Antimalarial Tetrahydroisoquinolone Carboxanilides” (J Med Chem, 2016)
